Results from patent US10087178B2, “Substituted spiropyrido[1,2-a]pyrazine derivative and medicinal use thereof as HIV integrase inhibitor” (priority 2012, dated 2018).
Where a name gives a salt, the structure may show the parent alone. Read-outs that look alike come from different tables or passages of the source.

Tested on: HIV-1 NL4-3 strain
Assay: Evaluation of antiviral activity: acute infection system of MT-4 cell with HIV-1 NL4-3 strain
Type: cell-based
Conditions: Human immunodeficiency virus 1, NL43, MT4, 120 h
[1] = MT-4 cells infected with HIV-1 NL4-3 strain (MOI 0.05), cultured 5 days, Cell Titer-Glo, read-out: antiviral activity (EC50)
[2] = read-out: antiviral activity (EC50), MT-4 cells infected with HIV-1 NL4-3 strain (MOI 0.05), cultured 5 days, Cell Titer-Glo

Structure (SMILES)	EC50 [1]	EC50 [2]
CO[C@H]1C[C@]2(CN(C)C(=O)c3c(OC(=O)C(C)C)c(=O)c(C(=O)NCc4cccc(Cl)c4F)cn32)C1 [Example S66, 7′-(3-chloro-2-fluorobenzylcarbamoyl)-cis-3-methoxy-2′-methyl-1′,8′-dioxo-1′,2′,3′,8′-tetrahydrospiro[cyclobutane-1,4′-pyrido[1,2-a]pyrazin]-9′-yl isobutyrate]	0.9 nM	
CCC(=O)Oc1c2n(cc(C(=O)NCc3cccc(Cl)c3F)c1=O)[C@]1(CN(C)C2=O)C[C@H](COC)C1 [Example S67, 7′-(3-chloro-2-fluorobenzylcarbamoyl)-cis-3-(methoxymethyl)-2′-methyl-1′,8′-dioxo-1′,2′,3′,8′-tetrahydrospiro[cyclobutane-1,4′-pyrido[1,2-a]pyrazin]-9′-yl propionate]	0.9 nM	
COC[C@H]1C[C@]2(CN(C)C(=O)c3c(OC(=O)C(C)C)c(=O)c(C(=O)NCc4cccc(Cl)c4F)cn32)C1 [Example S68, 7′-(3-chloro-2-fluorobenzylcarbamoyl)-cis-3-(methoxymethyl)-2′-methyl-1′,8′-dioxo-1′,2′,3′,8′-tetrahydrospiro[cyclobutane-1,4′-pyrido[1,2-a]pyrazin]-9′-yl isobutyrate]	0.7 nM	
CCCCCCCCCCCCCCCC(=O)Oc1c2n(cc(C(=O)NCc3cccc(Cl)c3F)c1=O)[C@]1(CN(C)C2=O)C[C@H](COC)C1 [Example S69, 7′-(3-chloro-2-fluorobenzylcarbamoyl)-cis-3-(methoxymethyl)-2′-methyl-1′,8′-dioxo-1′,2′,3′,8′-tetrahydrospiro[cyclobutane-1,4′-pyrido[1,2-a]pyrazin]-9′-yl palmitate]	1 nM	
COC[C@H]1C[C@]2(CN(C)C(=O)c3c(OC(=O)c4ccccc4)c(=O)c(C(=O)NCc4cccc(Cl)c4F)cn32)C1 [Example S70, 7′-(3-chloro-2-fluorobenzylcarbamoyl)-cis-3-(methoxymethyl)-2′-methyl-1′,8′-dioxo-1′,2′,3′,8′-tetrahydrospiro[cyclobutane-1,4′-pyrido[1,2-a]pyrazin]-9′-yl benzoate]	1.4 nM	
COC[C@H]1C[C@]2(CN(C)C(=O)c3c(OC(=O)C(C)(C)C)c(=O)c(C(=O)NCc4cccc(Cl)c4F)cn32)C1 [Example S71, 7′-(3-chloro-2-fluorobenzylcarbamoyl)-cis-3-(methoxymethyl)-2′-methyl-1′,8′-dioxo-1′,2′,3′,8′-tetrahydrospiro[cyclobutane-1,4′-pyrido[1,2-a]pyrazin]-9′-yl pivalate]	1.9 nM	
COC[C@H]1C[C@]2(CN(C)C(=O)c3c(OC(=O)c4ccc(C)cc4)c(=O)c(C(=O)NCc4cccc(Cl)c4F)cn32)C1 [Example S72, 7′-(3-chloro-2-fluorobenzylcarbamoyl)-cis-3-(methoxymethyl)-2′-methyl-1′,8′-dioxo-1′,2′,3′,8′-tetrahydrospiro[cyclobutane-1,4′-pyrido[1,2-a]pyrazin]-9′-yl 4-methylbenzoate]	0.9 nM	
COC[C@H]1C[C@]2(CN(C)C(=O)c3c(OC(=O)CN(C)C)c(=O)c(C(=O)NCc4cccc(Cl)c4F)cn32)C1 [Example S73, 7′-(3-chloro-2-fluorobenzylcarbamoyl)-cis-3-(methoxymethyl)-2′-methyl-1′,8′-dioxo-1′,2′,3′,8′-tetrahydrospiro[cyclobutane-1,4′-pyrido[1,2-a]pyrazin]-9′-yl 2-(dimethylamino)acetate dihydrochloride]	1.1 nM	
CCN1C[C@@]2(C[C@@H]2CO)n2cc(C(=O)NCc3ccc(F)cc3F)c(=O)c(O)c2C1=O [Example T1, (1S,2S)-N-(2,4-difluorobenzyl)-2′-ethyl-9′-hydroxy-2-(hydroxymethyl)-1′,8′-dioxo-1′,2′,3′,8′-tetrahydrospiro[cyclopropane-1,4′-pyrido[1,2-a]pyrazine]-7′-carboxamide hydrochloride]		18 nM
CCN1C[C@@]2(C[C@@H]2COC)n2cc(C(=O)NCc3ccc(F)cc3F)c(=O)c(O)c2C1=O [Example T2, (1S,2S)-N-(2,4-difluroobenzyl)-2′-ethyl-9′-hydroxy-2-(methoxymethyl)-1′,8′-dioxo-1′,2′,3′,8′-tetrahydrospiro[cyclopropane-1,4′-pyrido[1,2-a]pyrazine]-7′-carboxamide hydrochloride]	4.2 nM	
COC[C@H]1C[C@@]12CN(C)C(=O)c1c(O)c(=O)c(C(=O)NCc3ccc(F)cc3F)cn12 [Example T3, (1S,2S)-N-(2,4-difluorobenzyl)-9′-hydroxy-2-(methoxymethyl)-2′-methyl-1′,8′-dioxo-1′,2′,3′,8′-tetrahydrospiro[cyclopropane-1,4′-pyrido[1,2-a]pyrazine]-7′-carboxamide hydrochloride]		4.5 nM
CN1C[C@@]2(C[C@@H]2CO)n2cc(C(=O)NCc3ccc(F)cc3F)c(=O)c(O)c2C1=O [Example T4, (1S,2S)-N-(2,4-difluorobenzyl)-9′-hydroxy-2-(hydroxymethyl)-2′-methyl-1′,8′-dioxo-1′,2′,3′,8′-tetrahydrospiro[cyclopropane-1,4′-pyrido[1,2-a]pyrazine]-7′-carboxamide hydrochloride]		30 nM
CC(C)N1C[C@]2(C[C@H]2CO)n2cc(C(=O)NCc3cccc(Cl)c3F)c(=O)c(O)c2C1=O [Example T5, (1R,2R)-N-(3-chloro-2-fluorobenzyl)-9′-hydroxy-2-(hydroxymethyl)-2′-isopropyl-1′,8′-dioxo-1′,2′,3′,8′-tetrahydrospiro[cyclopropane-1,4′-pyrido[1,2-a]pyrazine]-7′-carboxamide hydrochloride]		4 nM
COC[C@@H]1C[C@]12CN(C(C)C)C(=O)c1c(O)c(=O)c(C(=O)NCc3cccc(Cl)c3F)cn12 [Example T6, (1R,2R)-N-(3-chloro-2-fluorobenzyl)-9′-hydroxy-2′-isopropyl-2-(methoxymethyl)-1′,8′-dioxo-1′,2′,3′,8′-tetrahydrospiro[cyclopropane-1,4′-pyrido[1,2-a]pyrazine]-7′-carboxamide hydrochloride]		3.8 nM
CCN1C[C@@]2(C[C@@H]2C(=O)O)n2cc(C(=O)NCc3ccc(F)cc3F)c(=O)c(O)c2C1=O [Example T7, (1S,2S)-7′-(2,4-difluorobenzylcarbamoyl)-2′-ethyl-9′-hydroxy-1′,8′-dioxo-1′,2′,3′,8′-tetrahydrospiro[cyclopropane-1,4′-pyrido[1,2-a]pyrazine]-2-carboxylic acid hydrochloride]	15 nM	
CCN1C[C@@]2(C[C@@H]2C(=O)NC)n2cc(C(=O)NCc3ccc(F)cc3F)c(=O)c(O)c2C1=O [Example T8, (1S,2S)-N^7′-(2,4-difluorobenzyl)-2′-ethyl-9′-hydroxy-N^2-methyl-1′,8′-dioxo-1′,2′,3′,8′-tetrahydrospiro[cylcopropane-1,4′-pyrido[1,2-a]pyrazine]-2,7′-dicarboxamide hydrochloride]	6.1 nM	
CCN1C[C@]2(C[C@H]2COC)n2cc(C(=O)NCc3ccc(F)cc3F)c(=O)c(O)c2C1=O [Example T9, (1R,2R)-N-(2,4-difluorobenzyl)-2′-ethyl-9′-hydroxy-2-(methoxymethyl)-1′,8′-dioxo-1′,2′,3′,8′-tetrahydrospiro[cyclopropane-1,4′-pyrido[1,2-a]pyrazine]-7′-carboxamide hydrochloride]		5.8 nM
CCN1C[C@]2(C[C@H]2CO)n2cc(C(=O)NCc3ccc(F)cc3F)c(=O)c(O)c2C1=O [Example T10, (1R,2R)-N-(2,4-difluorobenzyl)-2′-ethyl-9′-hydroxy-2-(hydroxymethyl)-1′,8′-dioxo-1′,2′,3′,8′-tetrahydrospiro[cyclopropane-1,4′-pyrido[1,2-a]pyrazine]-7′-carboxamide hydrochloride]		16 nM
CC(C)N1C[C@@]2(C[C@@H]2CO)n2cc(C(=O)NCc3cccc(Cl)c3F)c(=O)c(O)c2C1=O [Example T11, (1S,2S)-N-(3-chloro-2-fluorobenzyl)-9′-hydroxy-2-(hydroxymethyl)-2′-isopropyl-1′,8′-dioxo-1′,2′,3′,8′-tetrahydrospiro[cyclopropane-1,4′-pyrido[1,2-a]pyrazine]-7′-carboxamide hydrochloride]		6 nM
COC[C@H]1C[C@@]12CN(C(C)C)C(=O)c1c(O)c(=O)c(C(=O)NCc3cccc(Cl)c3F)cn12 [Example T12, (1S,2S)-N-(3-chloro-2-fluorobenzyl)-9′-hydroxy-2′-isopropyl-2-(methoxymethyl)-1′,8′-dioxo-1′,2′,3′,8′-tetrahydrospiro[cylcopropane-1,4′-pyrido[1,2-a]pyrazine]-7′-carboxamide hydrochloride]	5.7 nM	
CC(C)N1C[C@@]2(C[C@@H]2C(=O)N(C)C)n2cc(C(=O)NCc3cccc(Cl)c3F)c(=O)c(O)c2C1=O [Example T13, (1S,2S)-N^7′-(3-chloro-2-fluorobenzyl)-9′-hydroxy-2′-isopropyl-N^2,N^2-dimethyl-1′,8′-dioxo-1′,2′,3′,8′-tetrahydrospiro[cyclopropane-1,4′-pyrido[1,2-a]pyrazine]-2,7′-dicarboxamide hydrochloride]		3.4 nM
CC(C)N1C[C@]2(C[C@H]2C(=O)N(C)C)n2cc(C(=O)NCc3cccc(Cl)c3F)c(=O)c(O)c2C1=O [Example T14, (1R,2R)-N^7′-(3-chloro-2-fluorobenzyl)-9′-hydroxy-2′-isopropyl-N^2,N^2-dimethyl-1′,8′-dioxo-1′,2′,3′,8′-tetrahydrospiro[cyclopropane-1,4′ -pyrido[1,2-a]pyrazine]-2,7′-dicarboxamide hydrochloride]		4.8 nM
CN1C[C@@]2(C[C@@H]2CO)n2cc(C(=O)NCc3cccc(Cl)c3F)c(=O)c(O)c2C1=O [Example T15, (1S,2S)-N-(3-chloro-2-fluorobenzyl)-9′-hydroxy-2-(hydroxymethyl)-2′-methyl-1′,8′-dioxo-1′,2′,3′,8′-tetrahydrospiro[cyclopropane-1,4′-pyrido[1,2-a]pyrazine]-7′-carboxamide hydrochloride]		20 nM
